Laboratory results taken from ChEMBL document CHEMBL1143461, “Trifluoroethylamines as amide isosteres in inhibitors of cathepsin K” (Bioorg Med Chem Lett, 2005).

Assays:
[1] = target: Procathepsin L (Homo sapiens, UniProt P07711); test: Inhibitory activity against cathepsin L from human
[2] = target: Cathepsin B (Homo sapiens, UniProt P07858); test: Inhibitory activity against cathepsin B from human
[3] = target: T1, Cathepsin K (Homo sapiens, UniProt P43235); test: Inhibitory activity against cathepsin K (10 pM) using humanized rabbit enzyme; design: species or system Oryctolagus cuniculus
[4] = target: Cathepsin S (Homo sapiens, UniProt P25774); test: Inhibitory activity against cathepsin S from human
Chain of Cathepsin S (P25774 whole entry): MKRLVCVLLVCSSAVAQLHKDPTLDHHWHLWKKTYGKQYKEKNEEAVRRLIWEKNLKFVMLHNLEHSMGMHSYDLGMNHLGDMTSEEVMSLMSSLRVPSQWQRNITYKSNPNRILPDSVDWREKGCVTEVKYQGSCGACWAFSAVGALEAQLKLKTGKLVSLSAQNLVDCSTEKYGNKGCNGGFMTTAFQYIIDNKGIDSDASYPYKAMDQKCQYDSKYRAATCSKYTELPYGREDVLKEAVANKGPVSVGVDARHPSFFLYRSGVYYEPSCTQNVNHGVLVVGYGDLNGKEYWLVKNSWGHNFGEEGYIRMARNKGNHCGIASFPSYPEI

[5] = target: T2, Cathepsin K (Homo sapiens) (UniProt P43235); test: pKa value determined against cathepsin K from humanized rabbit enzyme; details: Oryctolagus cuniculus
T2 sequence (whole entry): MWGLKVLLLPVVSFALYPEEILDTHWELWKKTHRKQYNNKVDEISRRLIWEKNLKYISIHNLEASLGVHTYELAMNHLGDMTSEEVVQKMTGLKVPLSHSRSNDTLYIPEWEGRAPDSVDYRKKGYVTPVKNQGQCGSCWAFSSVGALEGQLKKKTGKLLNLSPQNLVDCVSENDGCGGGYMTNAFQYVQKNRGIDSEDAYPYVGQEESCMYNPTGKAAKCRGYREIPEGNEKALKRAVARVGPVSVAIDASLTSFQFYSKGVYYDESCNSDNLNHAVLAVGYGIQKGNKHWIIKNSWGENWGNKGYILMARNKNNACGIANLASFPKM

[6] = target: T1, Cathepsin K; test: Inhibitory activity against cathepsin K using humanized rabbit enzyme; design: species or system Oryctolagus cuniculus
[7] = target: T1, Cathepsin K; test: Inhibitory activity against cathepsin K from humanized rabbit enzyme; design: species or system Oryctolagus cuniculus

Chain of Procathepsin L (P07711 whole entry): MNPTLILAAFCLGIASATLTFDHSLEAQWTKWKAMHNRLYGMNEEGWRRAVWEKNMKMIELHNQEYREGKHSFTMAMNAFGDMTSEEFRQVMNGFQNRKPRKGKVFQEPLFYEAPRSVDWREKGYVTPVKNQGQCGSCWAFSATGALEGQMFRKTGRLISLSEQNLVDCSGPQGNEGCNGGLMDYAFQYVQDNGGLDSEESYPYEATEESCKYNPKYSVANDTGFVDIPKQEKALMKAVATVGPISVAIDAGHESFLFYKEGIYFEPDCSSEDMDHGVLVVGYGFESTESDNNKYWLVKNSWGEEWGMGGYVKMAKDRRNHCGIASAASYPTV

Row | IC50 [1] | IC50 [2] | IC50 [3] | IC50 [4] | pKa [5] | IC50 [6] | IC50 [7] | SMILES
1 | 47 nM | 1110 nM | ≤ 0.005 nM | 451 nM | – | – | – | CC(C)C[C@H](N[C@@H](c1ccc(-c2ccc(N3CCNCC3)cc2)cc1)C(F)(F)F)C(=O)NCC#N
2 | – | – | – | – | 6.7 | 988 nM | – | CC(C)C[C@H](NC(C)c1ccc(Br)cc1)C(=O)NCC#N (stereo partly drawn)
3 | – | – | – | – | – | 1 nM | – | CC(C)C[C@H](Nc1cscc1-c1ccc(N2CCNCC2)cc1)C(=O)NCC#N
4 | 3900 nM | 1050 nM | – | > 10000 nM | – | 0.6 nM | – | CN1CCN(c2nc(-c3ccc(C(=O)NC4(C(=O)NCC#N)CCCCC4)cc3)cs2)CC1
5 | – | – | – | – | 4.6 | 2.5 nM | – | CC(C)C[C@H](NC(c1ccc(Br)cc1)c1ccc(S(C)(=O)=O)cc1)C(=O)NCC#N (stereo partly drawn)
6 | 68 nM | > 10000 nM | – | 902 nM | – | 4.6 nM | – | CC(C)CC(NC(c1ccc(-c2ccc(N3CCNCC3)cc2)cc1)C(F)(F)F)C(=O)NCC#N (stereo not drawn)
7 | 34 nM | 3350 nM | – | 121 nM | 1.3 | 1.3 nM | 0.9 nM | CC(C)C[C@H](NC(c1ccc(Br)cc1)C(F)(F)F)C(=O)NCC#N (stereo partly drawn)
8 | > 10000 nM | > 10000 nM | – | > 10000 nM | – | 5 nM | – | N#CCNC(=O)C1(NC(c2ccc(-c3ccc(N4CCNCC4)cc3)cc2)C(F)(F)F)CCCCC1 (stereo not drawn)
9 | – | – | – | – | 1.8 | 2.4 nM | – | CC(C)C[C@H](NC(c1ccc(Br)cc1)C(F)(F)C(F)(F)F)C(=O)NCC#N (stereo partly drawn)
10 | 2270 nM | 614 nM | – | > 10000 nM | – | 0.4 nM | – | N#CCNC(=O)C1(NC(=O)c2ccc(-c3ccc(N4CCNCC4)cc3)cc2)CCCCC1
11 | – | – | – | – | 6.7 | 802 nM | – | CC(C)C[C@H](NCc1ccc(Br)cc1)C(=O)NCC#N
12 | – | – | – | – | – | 11 nM | – | CC(C)C[C@@H](C(=O)NCC#N)c1cccc(-c2ccc(N3CCNCC3)cc2)c1
13 | – | – | – | – | 0.7 | 30 nM | – | CC(C)C[C@H](NC(C#N)c1ccc(Br)cc1)C(=O)NCC#N (stereo partly drawn)
